Laboratory results from patent publication US4267184A, “Antiinflammatory 4,5-diaryl-2-(substituted-thio)pyrroles and their corresponding sulfoxides and sulfones” (E. I. Du Pont de Nemours and Company, priority 1980, dated 1981).

What was measured:
[1] = tested on: phenylquinone writhing in mice; test: Phenylquinone Writhing Test (analgesic activity); format: in vivo, female white mice; conditions: Mus musculus, oral, phenylquinone i.p., effective analgesic dose for 50% of the mice
From the text: A procedure for detecting and comparing the analgesic activity of compounds in this series and standard drugs for which there is a good correlation with human efficacy is the phenylquinone writhing test.
(§1) The test procedures employed for determining antiinflammatory and analgesic activity are described below with test data included in Tables VII and VIII.
The phenylquinone writhing test, modified from Siegmund, et al., Proc. Soc. Exp. Biol. Med. 95, 729 (1957), was employed. A test compound suspended in 1% methylcellulose was given orally to fasted (17-21 hours) female white mice, 5-20 animals per double blind test. Aqueous (0.01% phenyl-p-benzoquinone) phenylquinone was injected intraperitoneally at 24 minutes later using 0.20 ml per mouse. […] The effective analgesic dose for 50% of the mice (ED50) was calculated by the moving average method of Thompson, W. R., Bact. Rev. 11, 115-145 (1947).

[2] = tested on: Adjuvant-Induced Arthritis in Rats; test: Established Adjuvant-Induced Arthritis in Rats; format: in vivo, Charles River Lewis male rats; conditions: for ED50: 168 h, oral gavage daily for 7 days, ED50% decrease from control paw volume
Experimental: A procedure for detecting and comparing the antiinflammatory activity of compounds in this series and standard drugs for which there is a good correlation with human efficacy is the adjuvant-induced arthritis test in rats.
as §1
Charles River Lewis male rats (130-150 grams) are injected subcutaneously in plantar area of the right hind paw with 0.1 ml of adjuvant (Difco heat-killed, lyophilized Mycobacterium butyricum suspended in mineral oil 5 mg/ml). 20 Non-arthritic controls are injected with mineral oil. The animals are held for 2 weeks to allow development of arthritis. Paw volumes (uninjected, left hind paw) are measured and the adjuvant injected rats are culled and distributed to treatment groups of 10 of equal disease severity. Non-arthritic controls are distributed to 2 groups of 10. The rats are given oral doses of compound or PVA-Acacia (Polyvinyl Alcohol 1%, Gum Acacia, U.S.P. 5%, Methylparaben 0.5%) (10 ml/kg) by gavage on that day and on the 6 following days. One day after the last dose the paw volumes (uninjected, left hind paw) are measured using a Ugo Basile Volume Differential Meter Model 7101. [formula]
Dose-response regression lines of the % decrease are plotted on semi-log paper by visual fit and the ED50% decrease from control paw volume is determined by inspection.

[3] = Rattus norvegicus, Table VII, oral, read-out: percent reduction in paw volume at the indicated dose
[4] = Table VIII, oral, dose 27 (unit not given)

## FC(F)(F)Sc1cc(-c2ccccc2)c(-c2ccccc2)[nH]1 [Example 1, 4,5-Diphenyl-2-(trifluoromethylthio)pyrrole]
[1]; Table VII
  ED50: > 135 mg/kg
[2]; Rattus norvegicus, Table VII, oral, dose 25 mg/kg, read-out: percent reduction in paw volume at the indicated dose
  inhibition in vivo at 25 mg/kg: 36%

## COc1ccc(-c2cc(SC(F)(F)F)[nH]c2-c2ccc(OC)cc2)cc1 [Example 2, 4,5-Bis(4-methoxyphenyl)-2-(trifluoromethylthio)pyrrole]
[1]; Table VII
  ED50: 30 mg/kg
[2]; Rattus norvegicus, Table VII
  ED50: 1.7 mg/kg

## Fc1ccc(-c2cc(SC(F)(F)F)[nH]c2-c2ccc(F)cc2)cc1 [Example 3, 4,5-bis(4-fluorophenyl)-2-(trifluoromethylthio)pyrrole]
[1]; Table VII
  ED50: > 135 mg/kg
[2]; Rattus norvegicus, Table VII
  ED50: 1.5 mg/kg

## FC(F)(F)Sc1cc(-c2ccc(Cl)cc2)c(-c2ccc(Cl)cc2)[nH]1 [Example 4]
[1]; Table VII
  ED50: > 130 mg/kg
[2]; Rattus norvegicus, Table VII
  ED50: 2.8 mg/kg

## CCOc1ccc(-c2[nH]c(SC(F)(F)F)cc2-c2ccc(F)cc2)cc1 [Example 5]
[1]; Table VII
  ED50: > 130 mg/kg
[2]; [3]
  inhibition in vivo at 27 mg/kg: 19%

## Fc1ccc(-c2[nH]c(SC(F)(F)F)cc2-c2ccc(Cl)cc2)cc1 [Example 6]
[1]; Table VII
  ED50: > 108 mg/kg
[2]; Rattus norvegicus, Table VII
  ED50: 2 mg/kg

## Fc1ccc(-c2cc(SC(F)(F)F)[nH]c2-c2ccc(Cl)cc2)cc1 [Example 7]
[1]; Table VII
  ED50: > 108 mg/kg
[2]; Rattus norvegicus, Table VII
  ED50: 1.1 mg/kg

## COc1ccc(-c2[nH]c(SC(F)(F)F)cc2-c2ccc(F)cc2)cc1 [Example 8]
[1]; Table VII
  ED50: 26 mg/kg
[2]; Rattus norvegicus, Table VII
  ED50: 30 mg/kg

## COc1ccc(-c2[nH]c(SC(F)(F)F)cc2-c2ccc(Cl)cc2)cc1 [Example 9]
[1]; Table VII
  ED50: > 108 mg/kg
[2]; Rattus norvegicus, Table VII
  ED50: 6 mg/kg

## Fc1ccc(-c2cc(SC(F)(F)F)[nH]c2-c2ccccc2)cc1 [Example 10]
[1]; Table VII
  ED50: > 108 mg/kg
[2]; [3]
  inhibition in vivo at 27 mg/kg: 22%

## FC(F)(F)Sc1cc(-c2ccc(Cl)cc2)c(-c2ccccc2)[nH]1 [Example 11]
[1]; Table VII
  ED50: > 108 mg/kg
[2]; Rattus norvegicus, Table VII
  ED50: 25 mg/kg

## Cc1ccc(-c2cc(SC(F)(F)F)[nH]c2-c2ccc(C)cc2)cc1 [Example 12]
[1]; Table VII
  ED50: 16.2 mg/kg
[2]; Rattus norvegicus, Table VII
  ED50: 25 mg/kg

## Fc1cccc(-c2cc(SC(F)(F)F)[nH]c2-c2cccc(F)c2)c1 [Example 13]
[1]; Table VII
  ED50: > 108 mg/kg
[2]; [3]
  inhibition in vivo at 27 mg/kg: 33%

## Cc1c(SC(F)(F)F)[nH]c(-c2ccccc2)c1-c1ccccc1 [Example 15]
[1]; Table VIII
  ED50: > 108 mg/kg
[2]; Rattus norvegicus, Table VIII
  ED50: 7.5 mg/kg

## FC(F)(F)Sc1cc(-c2ccccc2)c(-c2ccc(Cl)c(Cl)c2)[nH]1 [Example 16]
[1]; Table VII
  ED50: > 108 mg/kg
[2]; Rattus norvegicus, Table VII
  ED50: 2.5 mg/kg

## FC(F)(F)Sc1cc(-c2ccccc2)c(-c2cccnc2)[nH]1 [Example 17]
[1]; Table VIII
  ED50: > 108 mg/kg
[2]; Rattus norvegicus, Table VIII
  ED50: 1.4 mg/kg

## COc1ccc(-c2cc(SC(F)(F)F)[nH]c2-c2cccs2)cc1 [Example 18]
[1]; Table VIII
  ED50: 78 mg/kg
[2]; Rattus norvegicus, Table VIII
  ED50: ~100 mg/kg

## Fc1ccccc1-c1cc(SC(F)(F)F)[nH]c1-c1ccccc1F [Example 19]
[1]; Table VIII
  ED50: > 108 mg/kg
[2]; Table VIII, oral, dose 45 (unit not given)
  Adjuvant Arthritis, value in parenthesis (percent reduction in paw volume/dose): 29%

## COc1ccc(-c2[nH]c(SC(F)(F)F)cc2-c2ccccc2)cc1 [Example 20]
[1]; Table VIII
  ED50: 22 mg/kg
[2]; [4]
  Adjuvant Arthritis, value in parenthesis (percent reduction in paw volume/dose): 44%

## Fc1ccc(-c2cc(SC(F)(F)F)[nH]c2-c2ccc(Br)cc2)cc1 [Example 21]
[1]; Table VIII
  ED50: > 108 mg/kg
[2]; Rattus norvegicus, Table VIII
  ED50: 3.5 mg/kg

## CN(C)c1ccc(-c2[nH]c(SC(F)(F)F)cc2-c2ccc(F)cc2)cc1 [Example 22]
[1]; Table VIII
  ED50: > 108 mg/kg
[2]; Rattus norvegicus, Table VIII
  ED50: 8.8 mg/kg

## Fc1ccc(-c2[nH]c(SC(F)(F)F)cc2-c2ccccc2)cc1 [Example 23]
[1]; Table VIII
  ED50: > 108 mg/kg
[2]; [4]
  Adjuvant Arthritis, value in parenthesis (percent reduction in paw volume/dose): 27%

## FC(F)(F)Sc1cc(-c2ccccc2)c(-c2ccc(Cl)cc2)[nH]1 [Example 24]
[1]; Table VIII
  ED50: > 135 mg/kg
[2]; Rattus norvegicus, Table VIII
  ED50: 10 mg/kg

## FC(F)(F)Sc1cc(-c2cccc(Cl)c2)c(-c2cccc(Cl)c2)[nH]1 [Example 25]
[1]; Table VIII
  ED50: > 108 mg/kg
[2]; Rattus norvegicus, Table VIII
  ED50: 25 mg/kg

## CSc1ccc(-c2[nH]c(SC(F)(F)F)cc2-c2ccc(F)cc2)cc1 [Example 26]
[1]; Table VIII
  ED50: > 108 mg/kg
[2]; Rattus norvegicus, Table VIII
  ED50: 0.6 mg/kg

## Fc1ccc(-c2cc(SC(F)(F)F)[nH]c2-c2cccs2)cc1 [Example 27]
[1]; Table VIII
  ED50: > 108 mg/kg
[2]; Rattus norvegicus, Table VIII
  ED50: ~27 mg/kg

## Fc1ccc(-c2cc(SC(F)(F)F)[nH]c2-c2cccnc2)cc1 [Example 28]
[1]; Table VIII
  ED50: > 135 mg/kg
[2]; Rattus norvegicus, Table VIII
  ED50: 0.04 mg/kg
